Reference: ChEMBL document CHEMBL3526033, “Identification of human liver cytochrome P450 enzymes involved in the metabolism of SCH 530348 (Vorapaxar), a potent oral thrombin protease-activated receptor 1 antagonist” (Drug Metab Dispos, 2011)
Values belong to the compound of their own block, whether it stands above or below them.

Experiments:
Liver microsome [1] = test: Drug metabolism in human liver microsomes assessed as (3R,3aS,4S,4aR,7R,8aR,9aR)-7-amino-4-((E)-2-(5-(3-fluorophenyl)pyridin-2-yl)vinyl)-3-methyldecahydronaphtho[2,3-c]furan-1(3H)-one formation after 120 mins by LC-MS/MS analysis; assay type: ADME; conditions: 2 h
Cytochrome P450 4F3 [2] = molecular target: T1, Cytochrome P450 4F3 (Homo sapiens, UniProt Q08477); test: Activity of human recombinant CYP4F3B assessed as enzyme-mediated 2-hydroxyethyl (1R,3aR,4aR,6R,8aR,9S,9aS)-9-((E)-2-(5-(3-fluorophenyl)pyridin-2-yl)vinyl)-1-methyl-3-oxododecahydronaphtho[2,3-c]furan-6-ylcarbamate formation at 25 uM after 120 mins by LC-MS/MS analysis in presence of NADPH; assay type: ADME; conditions: 2 h
T1 sequence (Q08477 whole entry): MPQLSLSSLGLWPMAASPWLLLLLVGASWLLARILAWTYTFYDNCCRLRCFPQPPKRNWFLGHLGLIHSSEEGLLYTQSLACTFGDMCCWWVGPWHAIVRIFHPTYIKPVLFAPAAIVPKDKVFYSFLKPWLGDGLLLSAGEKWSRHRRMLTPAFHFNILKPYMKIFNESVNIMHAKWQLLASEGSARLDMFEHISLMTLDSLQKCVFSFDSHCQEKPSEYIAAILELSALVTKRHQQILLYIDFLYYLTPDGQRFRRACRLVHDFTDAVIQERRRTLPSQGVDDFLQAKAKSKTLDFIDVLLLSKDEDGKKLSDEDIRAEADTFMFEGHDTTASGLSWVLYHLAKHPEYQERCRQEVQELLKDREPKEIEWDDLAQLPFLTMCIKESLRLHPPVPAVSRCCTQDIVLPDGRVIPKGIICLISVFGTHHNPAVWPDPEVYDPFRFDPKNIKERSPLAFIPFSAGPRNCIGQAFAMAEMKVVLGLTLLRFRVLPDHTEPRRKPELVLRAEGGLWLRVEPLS

Cytochrome P450 1A2 = molecular target: T2, Cytochrome P450 1A2 (Homo sapiens, UniProt P05177); test: Activity of human recombinant CYP1A2 assessed as enzyme-mediated (3R,3aS,4S,4aR,7R,8aR,9aR)-7-amino-4-((E)-2-(5-(3-fluorophenyl)pyridin-2-yl)vinyl)-3-methyldecahydronaphtho[2,3-c]furan-1(3H)-one formation at 25 uM after 120 mins by LC-MS/MS analysis in presence of NADPH; assay type: ADME; conditions: 2 h
T2 sequence (P05177 whole entry): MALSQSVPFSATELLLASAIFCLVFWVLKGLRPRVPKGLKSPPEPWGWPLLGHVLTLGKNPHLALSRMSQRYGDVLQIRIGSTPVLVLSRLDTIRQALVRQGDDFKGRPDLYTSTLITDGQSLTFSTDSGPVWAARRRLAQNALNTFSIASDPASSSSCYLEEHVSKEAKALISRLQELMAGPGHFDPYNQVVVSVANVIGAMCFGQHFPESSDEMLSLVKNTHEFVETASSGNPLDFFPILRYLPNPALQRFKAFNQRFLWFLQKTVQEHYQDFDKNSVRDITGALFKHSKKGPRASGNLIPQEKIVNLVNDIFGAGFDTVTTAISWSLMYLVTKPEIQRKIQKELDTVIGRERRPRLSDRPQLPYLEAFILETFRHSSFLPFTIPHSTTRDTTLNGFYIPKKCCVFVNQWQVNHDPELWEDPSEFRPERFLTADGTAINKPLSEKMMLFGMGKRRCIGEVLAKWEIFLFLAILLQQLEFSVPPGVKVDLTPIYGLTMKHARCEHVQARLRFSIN

Cytochrome P450 3A4 [3] = molecular target: T3, Cytochrome P450 3A4 (Homo sapiens, UniProt P08684); test: Activity of human recombinant CYP3A4 assessed as enzyme-mediated drug metabolism at 10 uM after 120 mins by LC-MS/MS analysis; assay type: ADME; conditions: 2 h
Liver microsome [4] = test: Drug metabolism in human liver microsomes assessed as (3R,3aS,4S,4aR,7R,8aR,9aR)-7-amino-4-((E)-2-(5-(3-fluorophenyl)pyridin-2-yl)vinyl)-3-methyldecahydronaphtho[2,3-c]furan-1(3H)-one formation at 10 uM after 120 mins by LC-MS/MS analysis; assay type: ADME; conditions: 2 h
Cytochrome P450 4F3 [5] = molecular target: T1, Cytochrome P450 4F3; test: Activity of human recombinant CYP4F3A assessed as enzyme-mediated (3R,3aS,4S,4aR,7R,8aR,9aR)-7-amino-4-((E)-2-(5-(3-fluorophenyl)pyridin-2-yl)vinyl)-3-methyldecahydronaphtho[2,3-c]furan-1(3H)-one formation at 25 uM after 120 mins by LC-MS/MS analysis in presence of NADPH; assay type: ADME; conditions: 2 h
Cytochrome P450 2A6 = Cytochrome P450 2A6 (Homo sapiens, UniProt P11509); test: Activity of human recombinant CYP2A6 assessed as enzyme-mediated drug metabolism treated with 25 uM vorapaxar after 120 mins by LC-MS/MS analysis in presence of NADPH; assay type: ADME; conditions: 2 h
Cytochrome P450 1B1 = Cytochrome P450 1B1 (Homo sapiens, UniProt Q16678); test: Activity of human recombinant CYP1B1 assessed as enzyme-mediated drug metabolism treated with 25 uM vorapaxar after 120 mins by LC-MS/MS analysis in presence of NADPH; assay type: ADME; conditions: 2 h
Liver microsome [6] = test: Drug metabolism in human liver microsomes assessed as 2-hydroxyethyl (1R,3aR,4aR,6R,8aR,9S,9aS)-9-((E)-2-(5-(3-fluorophenyl)pyridin-2-yl)vinyl)-1-methyl-3-oxododecahydronaphtho[2,3-c]furan-6-ylcarbamate formation at 25 uM after 120 mins by LC-MS/MS analysis; assay type: ADME; conditions: 2 h
Cytochrome P450 3A4 [7] = molecular target: T3, Cytochrome P450 3A4; test: Activity of human recombinant CYP3A4 assessed as enzyme-mediated ((4aR,6R)-9-{2-[(1R,4S)-5-((S)-3-Fluoro-phenyl)-pyridin-2-yl]-vinyl}-1-methyl-3-oxo-dodecahydro-naphtho[2,3-c]furan-6-yl)-carbamic acid(R)-2-hydroxy-ethyl ester formation at 10 uM after 120 mins by LC-MS/MS analysis in presence of astemizole; assay type: ADME; conditions: 2 h
CYP3A5 = CYP3A5 (Homo sapiens, UniProt P20815); test: Activity of human recombinant CYP3A5 assessed as enzyme-mediated drug metabolism at 10 uM after 120 mins by LC-MS/MS analysis in presence of NADPH; assay type: ADME; conditions: read-out: Compound recovery
[8] = Drug metabolism in human liver S9 fraction assessed as compound remaining at 10 uM after 120 mins by LC-MS/MS analysis in presence of NADPH; assay type: ADME, subcellular; conditions: read-out: Compound recovery
[9] = Drug metabolism in human liver microsomes assessed as compound remaining at 10 uM after 120 mins by LC-MS/MS analysis in presence of NADPH; assay type: ADME; conditions: read-out: Compound recovery
Cytochrome P450 3A4 [10] = molecular target: T3, Cytochrome P450 3A4; test: Drug metabolism assessed as human recombinant CYP3A4-mediated 2-hydroxyethyl (1R,3aR,4aR,6R,8aR,9S,9aS)-9-((E)-2-(5-(3-fluorophenyl)pyridin-2-yl)vinyl)-1-methyl-3-oxododecahydronaphtho[2,3-c]furan-6-ylcarbamate formation at 25 uM after 120 mins by LC-MS/MS analysis in presence of ketoconazole; assay type: ADME; conditions: recombinant enzyme, 2 h
CYP3A4 = CYP3A4 (Homo sapiens, UniProt P08684); test: Activity of human recombinant CYP3A4 assessed as enzyme-mediated drug metabolism at 10 uM after 120 mins by LC-MS/MS analysis in presence of NADPH; assay type: ADME; conditions: read-out: Compound recovery
CYP2C19 = CYP2C19 (Homo sapiens, UniProt P33261); test: Activity of human recombinant CYP2C19 assessed as enzyme-mediated drug metabolism at 10 uM after 120 mins by LC-MS/MS analysis in presence of NADPH; assay type: ADME; conditions: read-out: Compound recovery
Chain of CYP2C19 (P33261 whole entry): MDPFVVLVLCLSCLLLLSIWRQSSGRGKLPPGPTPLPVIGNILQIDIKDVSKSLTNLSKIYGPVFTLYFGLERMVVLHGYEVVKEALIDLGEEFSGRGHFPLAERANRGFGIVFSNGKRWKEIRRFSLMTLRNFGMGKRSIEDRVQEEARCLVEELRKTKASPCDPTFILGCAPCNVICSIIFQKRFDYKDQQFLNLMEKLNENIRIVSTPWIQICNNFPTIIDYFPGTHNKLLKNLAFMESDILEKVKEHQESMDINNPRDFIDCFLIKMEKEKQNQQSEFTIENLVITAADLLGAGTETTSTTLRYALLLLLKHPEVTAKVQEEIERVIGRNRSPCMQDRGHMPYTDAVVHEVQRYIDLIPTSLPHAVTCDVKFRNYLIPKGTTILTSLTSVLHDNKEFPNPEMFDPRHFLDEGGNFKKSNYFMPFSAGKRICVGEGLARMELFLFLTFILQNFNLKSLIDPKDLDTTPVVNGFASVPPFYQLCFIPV

T3 sequence (P08684 whole entry): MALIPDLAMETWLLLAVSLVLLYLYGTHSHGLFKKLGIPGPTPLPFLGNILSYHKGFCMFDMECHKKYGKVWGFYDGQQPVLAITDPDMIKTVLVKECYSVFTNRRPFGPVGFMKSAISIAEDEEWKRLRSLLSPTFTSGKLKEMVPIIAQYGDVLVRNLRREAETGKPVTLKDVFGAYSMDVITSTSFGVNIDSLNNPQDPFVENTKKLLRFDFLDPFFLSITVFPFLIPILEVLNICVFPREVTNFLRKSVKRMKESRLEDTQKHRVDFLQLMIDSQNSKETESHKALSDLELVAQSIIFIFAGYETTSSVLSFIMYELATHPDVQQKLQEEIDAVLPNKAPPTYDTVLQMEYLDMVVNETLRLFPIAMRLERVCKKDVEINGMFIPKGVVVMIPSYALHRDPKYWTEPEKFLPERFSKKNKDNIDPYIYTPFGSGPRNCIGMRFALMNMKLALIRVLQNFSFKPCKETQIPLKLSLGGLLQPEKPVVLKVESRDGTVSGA
Chain of Cytochrome P450 1B1 (Q16678 whole entry): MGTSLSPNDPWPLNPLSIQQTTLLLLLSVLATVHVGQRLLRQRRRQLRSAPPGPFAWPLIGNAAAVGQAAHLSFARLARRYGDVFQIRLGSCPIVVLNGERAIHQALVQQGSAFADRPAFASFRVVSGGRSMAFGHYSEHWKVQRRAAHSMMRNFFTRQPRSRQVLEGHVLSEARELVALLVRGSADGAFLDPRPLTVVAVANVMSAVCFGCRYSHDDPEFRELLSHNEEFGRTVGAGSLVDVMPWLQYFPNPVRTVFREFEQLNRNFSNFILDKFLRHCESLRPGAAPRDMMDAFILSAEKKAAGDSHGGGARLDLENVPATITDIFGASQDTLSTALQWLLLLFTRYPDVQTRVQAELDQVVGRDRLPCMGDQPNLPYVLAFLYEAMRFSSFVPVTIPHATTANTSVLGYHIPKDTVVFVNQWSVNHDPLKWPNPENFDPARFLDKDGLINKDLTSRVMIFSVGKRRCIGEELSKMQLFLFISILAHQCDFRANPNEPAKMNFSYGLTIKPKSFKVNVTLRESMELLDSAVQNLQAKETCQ
Chain of CYP3A4 (P08684 whole entry): as the sequence (P08684 whole entry) above
Chain of Cytochrome P450 2A6 (P11509 whole entry): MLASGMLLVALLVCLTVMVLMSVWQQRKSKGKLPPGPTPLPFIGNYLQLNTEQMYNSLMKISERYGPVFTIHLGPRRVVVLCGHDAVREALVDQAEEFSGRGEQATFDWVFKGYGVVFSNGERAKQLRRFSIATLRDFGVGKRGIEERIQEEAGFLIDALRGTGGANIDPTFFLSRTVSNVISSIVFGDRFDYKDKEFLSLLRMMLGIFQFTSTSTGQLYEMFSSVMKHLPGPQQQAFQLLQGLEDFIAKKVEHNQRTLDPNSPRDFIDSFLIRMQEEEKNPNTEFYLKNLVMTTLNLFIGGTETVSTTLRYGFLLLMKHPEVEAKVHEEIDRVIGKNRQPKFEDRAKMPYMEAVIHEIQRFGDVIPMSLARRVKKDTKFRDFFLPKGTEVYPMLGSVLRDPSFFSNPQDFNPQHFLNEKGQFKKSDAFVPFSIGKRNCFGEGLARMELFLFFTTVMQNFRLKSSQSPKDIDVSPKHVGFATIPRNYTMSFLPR
Chain of CYP3A5 (P20815 whole entry): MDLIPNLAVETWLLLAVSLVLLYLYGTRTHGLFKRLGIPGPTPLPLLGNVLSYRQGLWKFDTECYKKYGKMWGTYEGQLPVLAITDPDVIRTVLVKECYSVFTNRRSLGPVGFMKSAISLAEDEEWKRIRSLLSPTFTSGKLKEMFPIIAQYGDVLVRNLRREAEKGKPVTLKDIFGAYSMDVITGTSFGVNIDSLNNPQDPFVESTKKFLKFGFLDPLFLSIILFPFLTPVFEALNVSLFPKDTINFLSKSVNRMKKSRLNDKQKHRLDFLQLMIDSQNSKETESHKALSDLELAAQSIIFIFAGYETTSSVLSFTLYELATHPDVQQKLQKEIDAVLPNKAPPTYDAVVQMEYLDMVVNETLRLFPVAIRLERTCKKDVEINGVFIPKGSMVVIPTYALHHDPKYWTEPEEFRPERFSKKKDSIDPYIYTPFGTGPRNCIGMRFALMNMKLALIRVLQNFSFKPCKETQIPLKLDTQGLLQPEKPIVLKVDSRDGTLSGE

Km (Liver microsome [1]): 23.5 µM
Drug metabolism (Cytochrome P450 4F3 [2]): metabolite_detected
Drug metabolism (Cytochrome P450 1A2): metabolite_detected
Drug metabolism (Cytochrome P450 3A4 [3]): metabolite_not_detected
Drug metabolism (Liver microsome [4]): metabolite_not_detected
Drug metabolism (Cytochrome P450 4F3 [5]): metabolite_detected
Compound: CCOC(=O)N[C@@H]1CC[C@@H]2[C@@H](C1)C[C@H]1C(=O)O[C@H](C)[C@H]1[C@H]2/C=[14CH]/c1ccc(-c2cccc(F)c2)cn1

Drug metabolism (Cytochrome P450 2A6): metabolite_detected
Drug metabolism (Cytochrome P450 1B1): metabolite_detected
Compound: C[C@H]1OC(=O)[C@@H]2C[C@@H]3C[C@H](NC(=O)OCCO)CC[C@H]3[C@H](/C=C/c3ccc(-c4cccc(F)c4)cn3)[C@H]12

Drug metabolism (Liver microsome [6]): metabolite_not_detected
inhibition (INH) (Cytochrome P450 3A4 [7]): 76%
remaining at 2 h, 10 µM (CYP3A5): 93.9%
remaining at 2 h, 10 µM [8]: 95.7%
remaining at 2 h, 10 µM [9]: 92.7%
Drug metabolism (Cytochrome P450 3A4 [10]): metabolite_not_detected
remaining at 2 h, 10 µM (CYP3A4): 72.5%
remaining at 2 h, 10 µM (CYP2C19): 94.1%
Compound: CCOC(=O)N[C@@H]1CC[C@@H]2[C@@H](C1)C[C@H]1C(=O)O[C@H](C)[C@H]1[C@H]2/C=C/c1ccc(-c2cccc(F)c2)cn1 [VORAPAXAR]
